Starred links: 1 amine or outer side, 2 acyl side, 3 side chain; linkers in the order of their positions; H or OH if unused. Positions of bridges follow the written chain, without caps; N, C: chain ends. Non-standard residues stand in square brackets, D forms with d. Residues, ends and D or L forms follow the SMILES beside them. *: point of attachment. hPhe(3,5-F2-4-CF3) = N[C@@H](CCc1cc(F)c(C(F)(F)F)c(F)c1)C(=O)O; hPhe(3-Cl-4-CF3) = N[C@@H](CCc1ccc(C(F)(F)F)c(Cl)c1)C(=O)O; X71 = O=C([C@H](Cc1cc(Cl)cc(I)c1)N[*:1])[*:2]; X62 = O=C([C@H](Cc1cc(I)ccc1Br)N[*:1])[*:2]; NMeGly(cPent) = CN[C@H](C(=O)O)C1CCCC1; Phe(3-I) = N[C@@H](Cc1cccc(I)c1)C(=O)O; Pro(4,4-F2) = O=C(O)[C@@H]1CC(F)(F)CN1; NMeY = CN[C@@H](Cc1ccc(O)cc1)C(=O)O; NMeCha = CN[C@@H](CC1CCCCC1)C(=O)O; NMeChg = CN[C@H](C(=O)O)C1CCCCC1; NMeI = CC[C@H](C)[C@H](NC)C(=O)O; NMeD = CN[C@@H](CC(=O)O)C(=O)O; NMeL = CN[C@@H](CC(C)C)C(=O)O; NMeNva = CCC[C@H](NC)C(=O)O; NMeAbu = CC[C@H](NC)C(=O)O; NMeA = CN[C@@H](C)C(=O)O; NMeAib = CNC(C)(C)C(=O)O; Nle = CCCC[C@H](N)C(=O)O; Piperidide = C1CCN(*)CC1; Pra = C#CC[C@H](N)C(=O)O; Pyrrolidide = C1CCN(*)C1; Ac5c = NC1(C(=O)O)CCCC1; Aze = O=C(O)[C@@H]1CCN1; X1 = FC1(F)CN(*)CC1(F)F; Ac4c = NC1(C(=O)O)CCC1; Sar = CNCC(=O)O
Biological target: T1, Kras and SOS1 (biotin-tagged human Kras loaded with GDP, His-tagged human SOS1) (Homo sapiens, UniProt P01116, G12D)
T1 construct: made in house; host or cells: E. coli (stated for Kras only)
T1 sequence (P01116 1-188 isoform P01116-2 G12D): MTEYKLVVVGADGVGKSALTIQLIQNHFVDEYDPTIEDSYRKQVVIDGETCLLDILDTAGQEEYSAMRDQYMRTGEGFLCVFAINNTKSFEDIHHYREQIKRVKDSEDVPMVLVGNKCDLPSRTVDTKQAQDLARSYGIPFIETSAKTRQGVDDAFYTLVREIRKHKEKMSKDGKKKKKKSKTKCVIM
Experiment: Protein-protein interaction inhibition between Kras and SOS1 (KrasGl2D-SOS PPI) using AlphaScreen
Assay type: binding
Conditions: AlphaScreen; biotin-tagged human Kras loaded with GDP, His-tagged human SOS1; read-out: KRAS G12D-SOS PPI IC50
In short: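 AlphaScreen format: Ni donor beads capture His-SOS1, streptavidin acceptor beads capture biotinylated Kras (E. coli-expressed, GDP-loaded post-purification). Excite 680 nm, read 520-620 nm.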

Structure (SMILES) | IC50 [nM]
CCCC[C@@H]1NC(=O)[C@H](Cc2cc(I)ccc2Br)NC(=O)CN(C)C(=O)[C@H](Cc2ccc(OC)cc2)N(C)C(=O)[C@@H]2CCN2C(=O)[C@H](C)N(C)C(=O)[C@H]([C@@H](C)CC)NC(=O)[C@H](CC)N(C)C(=O)C[C@@H](C(=O)N2CCCCC2)N(C)C(=O)[C@H](CC(C)C)NC(=O)C(C)(C)N(C)C1=O [Compound 1155] ([NMeAbu]I[NMeA][Aze][NMeY](Me)[Sar][X62][Nle][NMeAib]L[NMeD]-Piperidide; lactam N-11) | 170
CCCC[C@@H]1NC(=O)[C@H](Cc2cc(Cl)cc(I)c2)NC(=O)CN(C)C(=O)[C@H](Cc2ccc(OC)cc2)N(C)C(=O)[C@@H]2CCN2C(=O)[C@H](C)N(C)C(=O)[C@H]([C@@H](C)CC)NC(=O)[C@H](CC)N(C)C(=O)C[C@@H](C(=O)N2CCCCC2)N(C)C(=O)[C@H](CC(C)C)NC(=O)C(C)(C)N(C)C1=O [Compound 1156] ([NMeAbu]I[NMeA][Aze][NMeY](Me)[Sar][X71][Nle][NMeAib]L[NMeD]-Piperidide; lactam N-11) | 140
CC[C@H](C)[C@@H]1NC(=O)[C@H](CC(C)C)N(C)C(=O)C[C@@H](C(=O)N2CCCCC2)N(C)C(=O)[C@H](C2CCCCC2)N(C)C(=O)[C@H](C(C)C)NC(=O)[C@@H]2CCCN2C(=O)[C@H](CCc2ccc(C(F)(F)F)c(Cl)c2)NC(=O)CN(C)C(=O)[C@H](CC2CCCCC2)N(C)C(=O)CN(C)C(=O)CN(C)C1=O [Compound 1157] ([NMeL]I[Sar][Sar][NMeCha][Sar][hPhe(3-Cl-4-CF3)]PV[NMeChg][NMeD]-Piperidide; lactam N-11) | 1.6
CCC[C@H]1C(=O)N[C@@H]([C@@H](C)CC)C(=O)N(C)CC(=O)N(C)CC(=O)N(C)[C@@H](CC2CCCCC2)C(=O)N(C)CC(=O)N[C@@H](CCc2cc(F)c(C(F)(F)F)c(F)c2)C(=O)N2CC(F)(F)C[C@H]2C(=O)NC2(CCCC2)C(=O)N(C)[C@@H](C2CCCCC2)C(=O)N(C)[C@H](C(=O)N2CCCC2)CC(=O)N1C [Compound 1160] ([NMeNva]I[Sar][Sar][NMeCha][Sar][hPhe(3,5-F2-4-CF3)][Pro(4,4-F2)][Ac5c][NMeChg][NMeD]-Pyrrolidide; lactam N-11) | 0.42
CC[C@H](C)[C@@H]1NC(=O)[C@H](CC(C)C)N(C)C(=O)C[C@@H](C(=O)N2CCCC2)N(C)C(=O)[C@H](C2CCCCC2)N(C)C(=O)C2(CCC2)NC(=O)[C@@H]2CC(F)(F)CN2C(=O)[C@H](CCc2ccc(C(F)(F)F)c(Cl)c2)NC(=O)CN(C)C(=O)[C@H](CC2CCCCC2)N(C)C(=O)CN(C)C(=O)CN(C)C1=O [Compound 1163] ([NMeL]I[Sar][Sar][NMeCha][Sar][hPhe(3-Cl-4-CF3)][Pro(4,4-F2)][Ac4c][NMeChg][NMeD]-Pyrrolidide; lactam N-11) | 0.46
CC[C@H](C)[C@@H]1NC(=O)[C@H](CC(C)C)N(C)C(=O)C[C@@H](C(=O)N2CCCC2)N(C)C(=O)[C@H](C2CCCCC2)N(C)C(=O)C2(CCC2)NC(=O)[C@@H]2CCCN2C(=O)[C@H](CCc2cc(F)c(C(F)(F)F)c(F)c2)NC(=O)CN(C)C(=O)[C@H](CC2CCCCC2)N(C)C(=O)CN(C)C(=O)CN(C)C1=O [Compound 1165] ([NMeL]I[Sar][Sar][NMeCha][Sar][hPhe(3,5-F2-4-CF3)]P[Ac4c][NMeChg][NMeD]-Pyrrolidide; lactam N-11) | 0.73
CC[C@H](C)[C@@H]1NC(=O)[C@H](CC(C)C)N(C)C(=O)C[C@@H](C(=O)N2CCCC2)N(C)C(=O)[C@H](C2CCCC2)N(C)C(=O)C2(CCCC2)NC(=O)[C@@H]2CC(F)(F)CN2C(=O)[C@H](CCc2cc(F)c(C(F)(F)F)c(F)c2)NC(=O)CN(C)C(=O)[C@H](CC2CCCCC2)N(C)C(=O)CN(C)C(=O)CN(C)C1=O [Compound 1166] ([NMeL]I[Sar][Sar][NMeCha][Sar][hPhe(3,5-F2-4-CF3)][Pro(4,4-F2)][Ac5c][NMeGly(cPent)][NMeD]-Pyrrolidide; lactam N-11) | 0.47
CC[C@H](C)[C@@H]1NC(=O)[C@H](CC(C)C)N(C)C(=O)C[C@@H](C(=O)N2CC(F)(F)C(F)(F)C2)NC(=O)[C@H]([C@@H](C)CC)N(C)C(=O)C2(CCCC2)NC(=O)[C@@H]2CCCN2C(=O)[C@H](CCc2ccc(C(F)(F)F)c(Cl)c2)NC(=O)CN(C)C(=O)[C@H](CC2CCCCC2)N(C)C(=O)CN(C)C(=O)CN(C)C1=O [Compound 1168] ([NMeL]I[Sar][Sar][NMeCha][Sar][hPhe(3-Cl-4-CF3)]P[Ac5c][NMeI]D-X1; lactam N-11) | 100
C#CC[C@@H]1NC(=O)[C@H](Cc2cccc(I)c2)NC(=O)CN(C)C(=O)[C@H](Cc2ccc(OC)cc2)N(C)C(=O)CN(C)C(=O)CN(C)C(=O)[C@H]([C@@H](C)CC)NC(=O)[C@H](CC(C)C)N(C)C(=O)C[C@@H](C(=O)N2CCCCC2)N(C)C(=O)[C@H](CC(C)C)NC(=O)C(C)(C)N(C)C1=O [Compound 1169] ([NMeL]I[Sar][Sar][NMeY](Me)[Sar][Phe(3-I)][Pra][NMeAib]L[NMeD]-Piperidide; lactam N-11) | 53
